Assays:
[1] = Moisture adsorption/desorption isotherm (VTI SGA-100 moisture balance); format: physicochemical; settings: 25° C.; adsorption 5 to 95% RH, desorption 95 to 5% RH; samples dried at 50° C. prior to analysis
Excerpt: It is clear from FIG. 3 that the moisture content of Type A varies depending on the relative humidity of its environment, up to a maximum water sorption level of about 3.7% by weight. […] It is clear from FIG. 7 that the moisture content of Type B varies depending on the relative humidity of its environment, up to a maximum water sorption level of about 4.5% by weight. Moisture adsorption/desorption data were collected on a VTI SGA-100 moisture balance system, available from VTI Corporation of Hialeah, Fla. For adsorption isotherms, an adsorption range of 5 to 95% relative humidity and a desorption range of 95 to 5% relative humidity in 5% relative humidity increments were used for analysis. The samples were dried at 50° C. prior to analysis. The analyses were conducted at 25° C. Equilibrium criteria used for the analysis were less than 0.001 percent change in 5 minutes with a maximum equilibration time of 1200 minutes if the weight criterion was not met.

[2] = XRPD analysis of the crystal phase under varied relative humidity and elevated temperature; format: physicochemical
Excerpt: This behavior is typical of channel hydrates, whereby water resides within the channels in the crystal lattice and can readily move in and out of the structure. Type A is therefore believed to be a type of channel hydrate. Type B is also a variable hydrate crystalline phase of Compound (1), i.e., the number of water molecules associated with each molecule of Compound (1) may vary. […] For this reason, it is preferable to maintain Type B at a modest RH level of about 20% to 40%. X-ray powder diffraction analyses were conducted on a Bruker AXS X-Ray Powder Diffractometer Model D8 Advance, available from Bruker AXS, Inc. of Madison, Wis., using CuKα radiation. The instrument is equipped with a long fine focus x-ray tube. The tube power was set to 40 kV and 30 mA. The instrument was operated in parallel beam mode with a Gobel Mirror, using a 0.6 mm exit slit, a 0.40 soller slit, a LiF flat crystal diffracted beam monochromator and a NaI scintillation detector. A detector scan was run using a tube angle of 1° 2θ. Step scans were run from 2 to 35° 2θ, at 0.050 per step, 4 sec per step. A reference quartz standard was used to check instrument alignment. Samples were prepared for analysis by filing a zero background quartz holder.

| Structure (SMILES) | maximum water sorption level [1] | crystal structure behaviour under varied humidity and temperature ([2]; dry nitrogen up to ˜85% RH and elevated temperature (up to 160° C.)) | crystal structure behaviour under varied humidity and temperature ([2]; low relative humidity (e.g., dry nitrogen) and/or elevated temperature (˜90° C.)) |
| --- | --- | --- | --- |
| COc1ccc2c(O[C@@H]3C[C@H]4C(=O)N[C@]5(C(=O)O)C[C@H]5/C=C\CCCCC[C@H](NC(=O)OC5CCCC5)C(=O)N4C3)cc(-c3csc(NC(C)C)n3)nc2c1 [Type A] | about 3.7 % by weight | crystal lattice expands at higher RH levels while maintaining its overall structure | – |
| COc1ccc2c(O[C@@H]3C[C@H]4C(=O)N[C@]5(C(=O)O)C[C@H]5/C=C\CCCCC[C@H](NC(=O)OC5CCCC5)C(=O)N4C3)cc(-c3csc(NC(C)C)n3)nc2c1 [Type B] | about 4.5 % by weight | – | readily loses water resulting in a partial collapse of its crystal structure |

Source: US20040229777A1, “Crystalline phases of a potent HCV inhibitor” (Boehringer Ingelheim International GmbH, priority 2003, published 2004)
